Assays:
SSTR1 = SSTR1 (Homo sapiens, UniProt P30872); assay: Radioligand-receptor binding assay, same method; settings: read-out: Conjugate 57 Ki
Protocol: (§1) Two conjugates were assessed in an in vitro assay evaluating binding to the somatostatin receptor 2 (SSTR2). A radioligand-receptor binding assay was conducted at Eurofins Panlabs (Taiwan) to determine the affinity of conjugates described herein to the SSTR2. The assay measures binding of radiolabeled ligand, [^125I] labeled somatostatin, to human SSTR2 using membrane preparations from SSTR2 expressing CHO-K1 cells. Membranes were incubated with radiolabeled somatostatin (0.03 nM) in the presence of conjugate/compound starting at a dose of 10 uM using 6× serial dilutions to obtain a 10-pt curve. After a four hour incubation, membranes were filtered and washed 3× and counted to determine the remaining[^125 I] somatostatin bound to the receptor. IC50 values were determined by a non-linear, least squares regression analysis using MathIQ™ (ID Business Solutions Ltd., UK). The Ki values were calculated using the equation of Cheng and Prusoff (Cheng and Prusoff, Biochem. Pharmacol. 22:3099-3108, 1973) using the observed IC50 of the tested conjugate/compound, the concentration of radioligand employed in the assay, and the historical values for the KD of the ligand obtained at Eurofins.
(§2) In another study, the binding of Conjugate 57 to the five SSTRs was measured with the same method. Conjugate 57 binds selectively and with high affinity to SSTR2.

SSTR3 = SSTR3 (Homo sapiens, UniProt P32745); assay: Radioligand-receptor binding assay, same method; settings: read-out: Conjugate 57 Ki
Sequence of SSTR3 (P32745 whole entry): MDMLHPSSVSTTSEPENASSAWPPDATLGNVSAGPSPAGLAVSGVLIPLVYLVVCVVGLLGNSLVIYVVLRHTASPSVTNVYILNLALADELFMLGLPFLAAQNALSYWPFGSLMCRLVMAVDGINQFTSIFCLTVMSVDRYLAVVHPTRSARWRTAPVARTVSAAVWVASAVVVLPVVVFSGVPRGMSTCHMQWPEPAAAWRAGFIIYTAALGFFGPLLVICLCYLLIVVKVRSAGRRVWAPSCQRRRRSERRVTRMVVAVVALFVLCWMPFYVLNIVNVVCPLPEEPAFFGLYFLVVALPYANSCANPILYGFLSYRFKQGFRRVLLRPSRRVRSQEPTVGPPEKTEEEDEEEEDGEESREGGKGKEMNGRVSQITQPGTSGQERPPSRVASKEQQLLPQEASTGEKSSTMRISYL
Protocol: as §1, §2

SSTR4 = SSTR4 (Homo sapiens, UniProt P31391); assay: Radioligand-receptor binding assay, same method; settings: read-out: Conjugate 57 Ki
Sequence of SSTR4 (P31391 whole entry): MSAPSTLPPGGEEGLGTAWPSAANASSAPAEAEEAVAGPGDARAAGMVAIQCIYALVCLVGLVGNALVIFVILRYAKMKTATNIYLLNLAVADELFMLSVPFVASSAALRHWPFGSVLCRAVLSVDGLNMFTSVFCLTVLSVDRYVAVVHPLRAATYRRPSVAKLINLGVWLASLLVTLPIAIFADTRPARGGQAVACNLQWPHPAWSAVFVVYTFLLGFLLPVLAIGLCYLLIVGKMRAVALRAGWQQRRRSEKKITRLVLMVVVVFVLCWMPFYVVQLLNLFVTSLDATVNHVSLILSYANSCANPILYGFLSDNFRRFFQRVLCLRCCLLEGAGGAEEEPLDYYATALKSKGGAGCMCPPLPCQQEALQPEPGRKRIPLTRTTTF
Protocol: as §1, §2

SSTR5 = SSTR5 (Homo sapiens, UniProt P35346); assay: Radioligand-receptor binding assay, same method; settings: read-out: Conjugate 57 Ki
Sequence of SSTR5 (P35346 whole entry): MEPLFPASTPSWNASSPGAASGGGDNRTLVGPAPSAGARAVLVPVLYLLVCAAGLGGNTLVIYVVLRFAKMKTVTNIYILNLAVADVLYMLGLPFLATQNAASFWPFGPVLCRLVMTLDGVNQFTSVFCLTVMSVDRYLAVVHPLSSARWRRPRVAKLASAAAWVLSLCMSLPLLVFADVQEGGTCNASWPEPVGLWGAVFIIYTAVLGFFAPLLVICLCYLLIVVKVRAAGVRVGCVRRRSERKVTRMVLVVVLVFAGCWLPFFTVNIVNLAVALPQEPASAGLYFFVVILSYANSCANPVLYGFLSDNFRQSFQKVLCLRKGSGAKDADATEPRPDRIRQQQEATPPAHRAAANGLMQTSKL
Protocol: as §1, §2

NCI-H69 SCLC tumors = assay: H69 tumor DM-1 levels by LC/MS-MS; assay type: in vivo, mice; settings: 1 mg/kg; 24 hour time point
Protocol: To examine the ability of conjugates of the present invention to accumulate in tumors, a murine cancer model was used. All mice were treated in accordance with the OLAW Public Health Service Policy on Human Care and Use of Laboratory Animals and the ILAR Guide for the Care and Use of Laboratory Animals. All in vivo studies were conducted following the protocols approved by the Blend Therapeutics Institutional Animal Care and Use Committee. Animals were inoculated with 2.5×10^6 NCI-H69 SCLC (small cell lung cancer) cells in 1:1 RPMI 1640 (Invitrogen, Carlsbad, Calif.)/Matrigel® (BD Biosciences, San Jose, Calif.) via subcutaneous injection to the right flank. Tumors were allowed to reach an approximate volume of ˜500 mm3. Animals were then randomized into treatment groups of 3 animals per time point and were dosed at 1 mg/kg (10% propylene glycol in water for injection for free conjugates, or 10% sucrose for nanoparticles), or 0.4 mg/kg for DM-1 (10% propylene glycol in water for injection). The 24 hour time point was used as a benchmark across conjugates.
Tumor DM-1 levels were determined by liquid chromatography mass spectrometry (LC/MS-MS). Four volumes of 5 mM 6-maleimidohexanoic acid to 1 part tumor v/w was added and homogenized for about 10-15 seconds with a handheld homogenizer. 10 μL of 500 mM Tris(2-carboxyethyl)phosphine was added to 100 uL of tumor homogenate, mixed well and incubated at room temperature for about 5-15 min. 200-300 uL of acetonitrile was used to precipitate proteins in tumor homogenate, samples were centrifuged for 5 min, and supernatant was injected onto LC/MS-MS system for DM-1 analysis.

[1] = test system: NIC-H524 tumor xenograft model (SSTR2 expressing); assay: Dose response study in NIC-H524 tumor xenograft model; assay type: in vivo
Protocol: A dose response study was carried out in NIC-H524 tumor xenograft model (SSTR2 expressing) with a single dose of Conjugate 57. Doses evaluated were 0.5 mg/kg, 1.0 mg/kg, and 2.0 mg/kg.

CYP1A2 = CYP1A2 (Homo sapiens, UniProt P05177); assay: CYP inhibition; assay type: in vitro ADME
Sequence of CYP1A2 (P05177 whole entry): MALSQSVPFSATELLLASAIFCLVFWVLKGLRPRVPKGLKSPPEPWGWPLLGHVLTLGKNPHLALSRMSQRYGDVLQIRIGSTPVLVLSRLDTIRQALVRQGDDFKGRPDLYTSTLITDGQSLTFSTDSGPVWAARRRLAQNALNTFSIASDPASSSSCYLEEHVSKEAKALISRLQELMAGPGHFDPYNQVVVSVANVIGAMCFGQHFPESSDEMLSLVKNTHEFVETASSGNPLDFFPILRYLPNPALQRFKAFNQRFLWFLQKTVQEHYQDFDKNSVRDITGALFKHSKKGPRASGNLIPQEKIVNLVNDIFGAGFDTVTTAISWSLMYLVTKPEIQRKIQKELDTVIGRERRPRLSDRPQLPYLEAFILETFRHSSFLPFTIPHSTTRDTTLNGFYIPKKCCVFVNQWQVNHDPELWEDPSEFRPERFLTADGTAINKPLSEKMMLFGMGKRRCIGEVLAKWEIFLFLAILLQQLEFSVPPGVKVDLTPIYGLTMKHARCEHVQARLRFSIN
Protocol: (§3) In a further study, the potential for Conjugate 57 to inhibit cytochrome P450 (CYP) was tested across 7 isozymes of CYP enzymes. […] The data also indicate Conjugate 57 presents no risk for causing drug-drug interactions (DDIs) by inhibiting the CYP clearance of other drugs. Lack of DDIs is critical when developing combination therapies.

CYP2B6 = CYP2B6 (Homo sapiens, UniProt P20813); assay: CYP inhibition; assay type: in vitro ADME
Sequence of CYP2B6 (P20813 whole entry): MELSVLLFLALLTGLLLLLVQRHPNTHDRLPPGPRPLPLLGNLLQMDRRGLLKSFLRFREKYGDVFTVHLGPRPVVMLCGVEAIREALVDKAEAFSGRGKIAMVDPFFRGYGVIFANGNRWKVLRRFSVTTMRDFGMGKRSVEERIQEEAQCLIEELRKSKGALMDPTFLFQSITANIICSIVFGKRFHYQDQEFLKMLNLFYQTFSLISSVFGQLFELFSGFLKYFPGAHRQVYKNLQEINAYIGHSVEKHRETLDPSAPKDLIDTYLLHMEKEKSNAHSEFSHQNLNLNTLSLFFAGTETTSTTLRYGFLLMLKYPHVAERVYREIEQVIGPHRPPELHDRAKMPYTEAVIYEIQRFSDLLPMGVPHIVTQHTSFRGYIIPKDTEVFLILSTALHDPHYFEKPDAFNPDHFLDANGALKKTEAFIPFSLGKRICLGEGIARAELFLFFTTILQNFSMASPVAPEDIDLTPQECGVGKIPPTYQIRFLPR
Protocol: as §3

CYP2C19 = CYP2C19 (Homo sapiens, UniProt P33261); assay: CYP inhibition; assay type: in vitro ADME
Sequence of CYP2C19 (P33261 whole entry): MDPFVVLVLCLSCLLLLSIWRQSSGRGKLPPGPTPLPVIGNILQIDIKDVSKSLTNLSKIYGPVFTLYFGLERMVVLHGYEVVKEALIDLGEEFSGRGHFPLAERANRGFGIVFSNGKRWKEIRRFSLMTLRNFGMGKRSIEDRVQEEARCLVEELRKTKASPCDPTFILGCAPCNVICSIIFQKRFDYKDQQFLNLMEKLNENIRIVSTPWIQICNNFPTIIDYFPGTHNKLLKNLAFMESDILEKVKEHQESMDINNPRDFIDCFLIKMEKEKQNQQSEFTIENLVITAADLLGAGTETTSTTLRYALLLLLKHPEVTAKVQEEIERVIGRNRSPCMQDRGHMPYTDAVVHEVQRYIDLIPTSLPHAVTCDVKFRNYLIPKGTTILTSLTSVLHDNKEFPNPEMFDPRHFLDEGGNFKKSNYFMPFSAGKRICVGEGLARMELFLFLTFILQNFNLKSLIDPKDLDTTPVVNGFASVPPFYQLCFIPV
Protocol: as §3

CYP2C8 = CYP2C8 (Homo sapiens, UniProt P10632); assay: CYP inhibition; assay type: in vitro ADME
Protocol: as §3

CYP2C9 = CYP2C9 (Homo sapiens, UniProt P11712); assay: CYP inhibition; assay type: in vitro ADME
Sequence of CYP2C9 (P11712 whole entry): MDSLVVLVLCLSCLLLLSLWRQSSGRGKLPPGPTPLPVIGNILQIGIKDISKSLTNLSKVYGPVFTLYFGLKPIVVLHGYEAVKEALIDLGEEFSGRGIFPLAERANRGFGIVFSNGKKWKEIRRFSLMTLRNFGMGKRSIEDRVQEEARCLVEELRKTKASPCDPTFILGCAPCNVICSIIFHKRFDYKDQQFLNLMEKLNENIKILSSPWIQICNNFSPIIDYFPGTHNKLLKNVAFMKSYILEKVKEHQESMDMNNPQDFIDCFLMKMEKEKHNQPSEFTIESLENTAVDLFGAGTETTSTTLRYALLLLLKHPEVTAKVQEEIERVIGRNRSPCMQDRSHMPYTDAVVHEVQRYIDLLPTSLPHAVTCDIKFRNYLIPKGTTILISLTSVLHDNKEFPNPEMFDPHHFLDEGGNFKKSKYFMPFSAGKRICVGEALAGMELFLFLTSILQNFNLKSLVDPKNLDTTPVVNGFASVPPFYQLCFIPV
Protocol: as §3

CYP2D6 = CYP2D6 (Homo sapiens, UniProt P10635); assay: CYP inhibition; assay type: in vitro ADME
Sequence of CYP2D6 (P10635 whole entry): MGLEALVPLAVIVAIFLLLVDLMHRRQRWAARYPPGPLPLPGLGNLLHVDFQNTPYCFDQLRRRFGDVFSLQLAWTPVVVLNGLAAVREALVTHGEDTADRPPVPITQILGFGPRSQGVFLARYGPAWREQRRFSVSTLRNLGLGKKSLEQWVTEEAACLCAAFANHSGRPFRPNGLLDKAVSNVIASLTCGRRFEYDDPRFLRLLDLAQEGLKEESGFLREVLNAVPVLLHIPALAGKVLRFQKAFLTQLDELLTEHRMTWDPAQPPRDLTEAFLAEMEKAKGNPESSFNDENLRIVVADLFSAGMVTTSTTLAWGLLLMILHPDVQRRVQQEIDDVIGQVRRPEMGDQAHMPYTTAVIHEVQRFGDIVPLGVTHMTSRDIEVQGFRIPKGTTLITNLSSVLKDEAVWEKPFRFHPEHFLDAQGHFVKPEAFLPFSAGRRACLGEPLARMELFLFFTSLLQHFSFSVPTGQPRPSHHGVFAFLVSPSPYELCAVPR
Protocol: as §3

CYP3A4 = CYP3A4 (Homo sapiens, UniProt P08684); assay: CYP inhibition; assay type: in vitro ADME
Sequence of CYP3A4 (P08684 whole entry): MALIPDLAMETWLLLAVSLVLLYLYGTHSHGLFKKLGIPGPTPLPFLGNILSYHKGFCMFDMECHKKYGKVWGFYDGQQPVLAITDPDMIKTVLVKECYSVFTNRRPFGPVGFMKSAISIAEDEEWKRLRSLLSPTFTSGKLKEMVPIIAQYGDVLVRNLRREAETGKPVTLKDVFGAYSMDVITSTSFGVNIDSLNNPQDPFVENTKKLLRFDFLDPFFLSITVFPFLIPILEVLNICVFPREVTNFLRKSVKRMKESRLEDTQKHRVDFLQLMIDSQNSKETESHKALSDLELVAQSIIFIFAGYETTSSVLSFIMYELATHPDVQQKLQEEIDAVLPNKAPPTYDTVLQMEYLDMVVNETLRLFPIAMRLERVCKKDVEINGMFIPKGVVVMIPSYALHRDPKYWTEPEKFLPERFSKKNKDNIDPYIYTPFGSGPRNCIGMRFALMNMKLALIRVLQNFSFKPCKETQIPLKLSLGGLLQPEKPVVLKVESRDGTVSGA
Protocol: as §3

HCC-33 (SCLC) xenografts = assay: HCC-33 (SCLC) xenografts, tumor growth inhibition (Example 13); assay type: in vivo; settings: for TGI % Day 5 / TGI % Day 8 / TGI % Day 12 / TGI % Day 16 / TGI % Day 20 / TGI % Day 23 / TGI % Day 27 / TGI % Day 30: dosed on Day 1 and Day 8
Protocol: The efficacy of Conjugate 57 was studied with HCC-33 (SCLC) xenografts. Conjugate 57 was dosed on Day 1 and Day 8.

[2] = single dose 0.5, 1.0 and 2.0 mg/kg
[3] = both groups (2 mg/kg and 1 mg/kg)

Sequence of SSTR1 (P30872 whole entry): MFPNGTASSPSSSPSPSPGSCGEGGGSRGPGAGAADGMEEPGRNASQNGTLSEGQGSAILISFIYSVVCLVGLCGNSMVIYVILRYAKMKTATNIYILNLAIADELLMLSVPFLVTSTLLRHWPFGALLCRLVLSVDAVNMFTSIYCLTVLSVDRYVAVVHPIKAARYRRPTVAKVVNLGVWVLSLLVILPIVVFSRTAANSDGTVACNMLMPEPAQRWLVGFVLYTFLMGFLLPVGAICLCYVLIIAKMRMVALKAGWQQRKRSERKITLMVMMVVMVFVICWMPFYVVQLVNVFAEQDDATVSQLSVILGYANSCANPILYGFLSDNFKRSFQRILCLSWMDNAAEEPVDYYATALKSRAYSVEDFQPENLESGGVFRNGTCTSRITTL

## COc1cc2cc(c1Cl)N(C)C(=O)C[C@H](OC(=O)[C@H](C)N(C)C(=O)CCSSC[C@H](NC(=O)[C@@H]1CSSC[C@H](NC(=O)[C@H](N)Cc3ccccc3)C(=O)N[C@@H](Cc3ccc(O)cc3)C(=O)N[C@H](Cc3c[nH]c4ccccc34)C(=O)N[C@@H](CCCCN)C(=O)N[C@@H]([C@@H](C)O)C(=O)N1)C(N)=O)[C@]1(C)O[C@H]1[C@H](C)[C@@H]1C[C@@](O)(NC(=O)O1)[C@H](OC)/C=C/C=C(\C)C2 [Conjugate 57]
SSTR1
  Ki: 0.31 µM
SSTR3
  Ki: 0.0198 µM
SSTR4
  Ki: 5.48 µM
SSTR5
  Ki: 0.0096 µM
NCI-H69 SCLC tumors
  H69 tumor DM-1 levels: 243 nM
[1]; [2]
  dose response (tumor volume): clear dose response
  tolerability (body weight change): all doses are well-tolerated
[1]; single dose of 2 mg/kg
  tumor response (tumor volume): significant regression
CYP1A2
  IC50: > 10 µM
CYP2B6
  IC50: > 10 µM
CYP2C19
  IC50: > 10 µM
CYP2C8
  IC50: > 10 µM
CYP2C9
  IC50: > 10 µM
CYP2D6
  IC50: > 10 µM
CYP3A4; CYP3A4 Midazolam
  IC50: > 10 µM
CYP3A4; CYP3A4 Testosterone
  IC50: > 10 µM
HCC-33 (SCLC) xenografts; 1 mg/kg
  TGI % Day 5: 46.2%
  TGI % Day 8: 71.3%
  TGI % Day 12: 87.2%
  TGI % Day 16: 96.3%
  TGI % Day 20: 98.1%
  TGI % Day 23: 99.2%
  TGI % Day 27: 99.6%
  TGI % Day 30: 99.6%
HCC-33 (SCLC) xenografts; 2 mg/kg
  TGI % Day 5: 47%
  TGI % Day 8: 74.8%
  TGI % Day 12: 88.2%
  TGI % Day 16: 96.2%
  TGI % Day 20: 98.3%
  TGI % Day 23: 99.1%
  TGI % Day 27: 99.5%
  TGI % Day 30: 99.9%
HCC-33 (SCLC) xenografts; [3]
  Body weights: increased
  Tumor regression: ~100%
